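Grown in 96-well plates, cells were treated for 48 hours with each compound at five concentrations. Insufficient inhibition: endpoint recorded as highest concentration tested. TGI: total growth inhibition.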
Legend:
Assay in all cases: growth of human tumour cells (NCI), 48 h
KM20L2 colon = tested on: KM20L2 colon
LXFL 529 NSCLC = tested on: LXFL 529 NSCLC
RXF-631 renal = tested on: RXF-631 renal
SNB-78 CNS = tested on: SNB-78 CNS
XF 498 CNS = tested on: XF 498 CNS
DMS 114 small cell lung = tested on: DMS 114 small cell lung
DMS 273 small cell lung = tested on: DMS 273 small cell lung
HOP-18 NSCLC = tested on: HOP-18 NSCLC

SMILES	TGI (KM20L2 colon)	TGI (LXFL 529 NSCLC)	TGI (RXF-631 renal)	TGI (SNB-78 CNS)	TGI (XF 498 CNS)	TGI (DMS 114 small cell lung)	TGI (DMS 273 small cell lung)	TGI (HOP-18 NSCLC)
C=C[C@@]1(C)CCC2(O)C(CCC3C2(C)CCC[C@@]3(C)COC(=O)CC(=O)OC)C1 (stereo partly specified)	33.6 µM	33 µM	38.2 µM	68.9 µM	40.6 µM	–	–	–
CC(=O)OCCOCNC(=S)N/N=C/c1ccc2ccccc2n1	79.8 µM	> 100 µM	> 100 µM	> 100 µM	> 100 µM	71.3 µM	> 100 µM	> 100 µM
CC12CCC([C@H](N3CCOCC3)/C1=N\OCCN1CCCC1)C2(C)C (stereo partly specified)	> 100 µM	> 100 µM	> 100 µM	> 100 µM	–	> 100 µM	> 100 µM	> 100 µM
CC1(c2cccc3c2C2(O)C=CC4(CCC32)OCCO4)OCCO1 (stereo unspecified)	> 100 µM	> 100 µM	–	> 100 µM	–	> 100 µM	> 100 µM	> 100 µM
CC1=CCC2(C#N)CCC1C2O (stereo unspecified)	> 100 µM	> 100 µM	–	> 100 µM	> 100 µM	> 100 µM	> 100 µM	> 100 µM
COc1ccc(-c2cnoc2-c2ccc(OC)c(OC)c2)cc1OC	> 22.4 µM	> 100 µM	–	> 26.8 µM	9.99 µM	2.23 µM	2.02 µM	> 59.5 µM
COc1ccc(N(C)CN(C)c2nc(N(C)C)nc(N(C)C)n2)cc1	> 100 µM	> 100 µM	–	> 100 µM	–	> 100 µM	> 100 µM	> 100 µM
CCCCCCCC(=O)OC[C@@H](C[As](=O)(O)O)OC(=O)CCCCCCC	31.2 µM	25.3 µM	–	30.8 µM	–	22.3 µM	26.1 µM	44.1 µM
COC(=O)C1CC(=O)CCC1c1ccccc1 (stereo unspecified)	> 100 µM	> 100 µM	–	> 100 µM	–	> 100 µM	> 100 µM	> 100 µM
C=CCC1C(=O)C(C(=O)OC)N2CCc3c([nH]c4ccccc34)C12 (stereo unspecified)	> 100 µM	> 100 µM	–	–	–	> 100 µM	–	–
C#CCSc1nc(N)c2ncn(C3OC(CO)C(O)C3O)c2n1 (stereo unspecified)	–	> 100 µM	–	> 100 µM	> 100 µM	> 100 µM	> 100 µM	–
O=C1CSC(/C(=C/c2ccccc2)c2nc3ccccc3[nH]2)=N1	> 100 µM	> 100 µM	–	> 100 µM	> 100 µM	> 100 µM	–	–
O=C(CC(=O)C(=O)Nc1ccccc1)CC(c1ccccc1)c1c(O)c2ccccc2oc1=O (stereo unspecified)	> 100 µM	–	> 100 µM	–	–	> 100 µM	> 100 µM	> 100 µM
O=C(O)c1c[nH]c2c(=O)[nH]cnc12	–	> 100 µM	> 100 µM	> 100 µM	–	> 100 µM	–	> 100 µM

From PubChem BioAssay (NCI)
